The IC50 is the point on the concentration scale where inhibition reaches its midpoint. Low readings indicate higher potency, high ones lower potency.

One data set concerns Bipolaris oryzae. Put plainly: Antifungal activity against Bipolaris oryzae at 50 ug assessed as zone of inhibition incubated after 5 days at 25 degreeC by paper disk method. Format: functional. The following applies: for zone of inhibition at 50 µg/disc: 120 h, time 5 day, read-out: IZ.
The target in data set [1] is Human immunodeficiency virus type 1 integrase (Human immunodeficiency virus 1, UniProt Q7ZJM1). As to the kind of experiment: Inhibition of HIV-1 integrase expressed in HEK293T co-transfected with CS-II Luci vector incubated for 48 hrs by Bright-Glo luciferase assay. Format: cell-based.
Human immunodeficiency virus type 1 integrase, sequence (Q7ZJM1 whole entry): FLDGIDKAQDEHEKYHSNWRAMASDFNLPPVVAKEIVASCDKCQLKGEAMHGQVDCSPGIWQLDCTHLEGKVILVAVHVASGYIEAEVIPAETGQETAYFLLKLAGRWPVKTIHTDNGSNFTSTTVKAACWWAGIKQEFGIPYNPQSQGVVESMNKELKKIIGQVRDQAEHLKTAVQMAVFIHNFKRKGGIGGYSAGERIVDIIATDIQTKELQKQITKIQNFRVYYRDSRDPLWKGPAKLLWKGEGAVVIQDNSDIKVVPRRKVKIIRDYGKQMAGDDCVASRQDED
Data set [2] in a line: Cytotoxicity against human HEK293T cells assessed as reduction in cell viability incubated for 48 hrs by WST assay. Format: toxicity, cell-based, HEK-293T. The following applies: read-out: LC50.

Active and inactive are the calls of the source. The rule behind the calls is not given here. Bounds are passed on as bounds.

On to `CCCC/C=C/c1c(OC)cc(=O)oc1C`, for which, in the data set with Bipolaris oryzae, the zone of inhibition at 50 µg/disc was 12 mm. Moreover, in data set [1], it took 250 µM to reach half-maximal inhibition (IC50).

As to `CCCCCCc1c(OC)cc(=O)oc1C`, in the data set on Bipolaris oryzae, the zone of inhibition at 50 µg/disc was 12 mm. The compound also registered a half-maximal inhibitory concentration (IC50) in data set [1] of 15 µM.

As for `CCCCCc1cc(O)c(C)c(O)c1C=O`, the zone of inhibition at 50 µg/disc in the data set with Bipolaris oryzae amounted to 12 mm. Also, the 50% inhibitory concentration (IC50) in data set [1] amounted to 13 µM.

For the compound `CCCCCCC[C@H]1Cc2cc3c(c(O)c2CO1)C(=O)C(=O)C(OC)=C3`, the “inhibition zone (IZ)” value with Bipolaris oryzae (dose 50.0 µg, time 5.0 day) was “inactive”. Also, the midpoint of inhibition in data set [1], the IC50, lay at 0.44 µM. The CC50 at 48 h in data set [2] is over 250 µM.

(Values after ChEMBL document CHEMBL5370570, “HIV-1 Integrase Inhibitor, Dihydroobionin B, and the Investigation of Its Extraordinary Specific Rotation” (J Nat Prod, 2023).)
